Read-outs that look alike come from different tables or passages of the source.
System: adjuvant-induced arthritis in rats
Test: Established Adjuvant-Induced Arthritis in Rats (A.A.)
Format: in vivo, Charles River Lewis male rats
Settings: for ED50: Rattus norvegicus, read-out: A.A. ED50 % (ED50% decrease from control paw volume)
[1] = oral, 7 daily doses, rats, determined as % paw volume reduction from control (uninjected, left hind paw)

Molecule | ED50 [1] [mg/kg] | further results
FC(F)C(F)(F)Sc1nc(-c2ccccc2)c(-c2ccccc2)n1C1CCCO1 (stereo not drawn) [Example 16, 4,5-Diphenyl-2-(1,1,2,2-tetrafluoroethylthio)-1-(2-tetrahydrofuranyl)imidazole] | 2.7 | 
CCOC(=O)n1c(SC(F)(F)C(F)F)nc(-c2ccc(F)cc2)c1-c1ccc(F)cc1 [Example 6, 1-Ethoxycarbonyl-4,5-bis(4-fluorophenyl)-2-(1,1,2,2-tetrafluoroethylthio)imidazole] | 0.15 | 
Cn1c(SC(F)(F)C(F)F)nc(-c2ccc(F)cc2)c1-c1ccc(F)cc1 [Example 19] | 2.3 | 
CCCCC1C(=O)N(c2ccccc2)N(c2ccccc2)C1=O [Phenylbutazone, reference compound] | 10 | 
Cn1c(S(=O)(=O)C(F)(F)C(F)F)nc(-c2ccc(F)cc2)c1-c1ccc(F)cc1 [Example 8, 4,5-bis(4-Fluorophenyl)-1-methyl-2-(1,1,2,2-tetrafluoroethylsulfonyl)imidazole] | 1 | 
Mixture of 1-Ethoxycarbonyl-4-(4-fluorophenyl)-5-phenyl-2-(1,1,2,2-tetrafluoroethylthio)imidazole and 1-Ethoxycarbonyl-5-(4-fluorophenyl)-4-phenyl-2-(1,1,2,2-tetrafluoroethylthio)imidazole [Example 7] |  | A.A. ED50 % (ED50% decrease from control paw volume) [1]: 0.65 mg/kg
CCn1c(SC(F)(F)C(F)F)nc(-c2ccc(F)cc2)c1-c1ccc(F)cc1 [Example 20] | 3 | 
CN(C)C(=S)n1c(SC(F)(F)C(F)F)nc(-c2ccccc2)c1-c1ccccc1 [Example 9, 1-(N,N-Dimethylthiocarbamoyl)-4,5-diphenyl-2-(1,1,2,2-tetrafluoroethylthio)imidazole] | < 15 | % paw volume reduction from control (@ 15 mg/Kg, oral, rats): 53%
C=CCn1c(SC(F)(F)C(F)F)nc(-c2ccc(F)cc2)c1-c1ccc(F)cc1 [Example 22] | 1.3 | 
CC(C)n1c(SC(F)(F)C(F)F)nc(-c2ccc(F)cc2)c1-c1ccc(F)cc1 [Example 18, 4,5-bis(4-Fluorophenyl)-1-isopropyl-2-(1,1,2,2-tetrafluoroethylthio)imidazole] | 10 | 
CS(=O)(=O)n1c(SC(F)(F)C(F)F)nc(-c2ccccc2)c1-c1ccccc1 [Example 32] | ~21 | 
O=S(=O)(c1ccccc1)n1c(SC(F)(F)C(F)F)nc(-c2ccccc2)c1-c1ccccc1 [Example 14, 1-Benzenesulfonyl-4,5-diphenyl-2-(1,1,2,2-tetrafluoroethylthio)imidazole] | ~35 | 
O=C(c1ccccc1)n1c(SC(F)(F)C(F)F)nc(-c2ccccc2)c1-c1ccccc1 [Example 34] | 2.3 | 
COc1ccc2c(c1)c(CC(=O)O)c(C)n2C(=O)c1ccc(Cl)cc1 [Indomethacin, reference compound] |  | ED50 (po): 0.3 mg/kg
Cn1c(SC(F)(F)F)nc(-c2ccc(F)cc2)c1-c1ccc(F)cc1 [Example 28] | 2.1 | 
CNC(=O)N(C)C(=O)n1c(SC(F)(F)C(F)F)nc(-c2ccccc2)c1-c1ccccc1 [Example 11, N-Methyl-N-(methylaminocarbonyl)-4,5-diphenyl-2-(1,1,2,2-tetrafluoroethylthio)imidazole-1-carboxamide] | 1.8 | 
CC(C)Cc1ccc(C(C)C(=O)O)cc1 (stereo not drawn) [Ibuprofen, reference compound] | 100 | 
O=C(OCc1ccccc1)n1c(SC(F)(F)C(F)F)nc(-c2ccccc2)c1-c1ccccc1 [Example 12, 1-Benzyloxycarbonyl-4,5-diphenyl-2-(1,1,2,2-tetrafluoroethylthio)imidazole] | < 25 | % paw volume reduction from control (@ 25 mg/Kg, oral, rats): 69%

Molecule | ED50 [1] [mg/kg] | further results
C=CCn1c(S(=O)(=O)C(F)(F)C(F)F)nc(-c2ccc(F)cc2)c1-c1ccc(F)cc1 [Example 26] | 2 | 
CCCn1c(SC(F)(F)C(F)F)nc(-c2ccc(F)cc2)c1-c1ccc(F)cc1 [Example 21] | 14 | 
CC(C)(C)C(=O)OCn1c(S(=O)(=O)C(F)(F)C(F)F)nc(-c2ccc(F)cc2)c1-c1ccc(F)cc1 [Example 13, 4,5-bis(4-Fluorophenyl)-1-(pivaloyloxymethyl)-2-(1,1,2,2-tetrafluoroethylsulfonyl)imidazole] | 1.2 | 
O=S(=O)(c1nc(-c2ccccc2)c(-c2ccccc2)n1COCc1ccccc1)C(F)(F)C(F)F [Example 4, 1-Benzyloxymethyl-4,5-diphenyl-2-(1,1,2,2-tetrafluoroethylsulfonyl)imidazole] | 1.3 | 
CCOC(=O)n1c(SC(F)(F)C(F)F)nc(-c2ccccc2)c1-c1ccccc1 [Example 3, 4,5-Diphenyl-1-ethoxycarbonyl-2-(1,1,2,2-tetrafluoroethylthio)imidazole] | 2.3 | 
Cn1c(S(=O)(=O)C(F)(F)F)nc(-c2ccc(F)cc2)c1-c1ccc(F)cc1 [Example 29] | > 3 | % paw volume reduction from control (@ 3 mg/Kg, oral, rats): 33%
CC(=O)n1c(SC(F)(F)C(F)F)nc(-c2ccccc2)c1-c1ccccc1 [Example 15, 1-Acetyl-4,5-diphenyl-2-(1,1,2,2-tetrafluoroethylthio)imidazole] | 0.9 | 
CCCn1c(S(=O)(=O)C(F)(F)C(F)F)nc(-c2ccc(F)cc2)c1-c1ccc(F)cc1 [Example 24] | > 9 | % paw volume reduction from control (@ 9 mg/Kg, oral, rats): 33%
COc1ccc(-c2nc(S(=O)(=O)C(F)(F)CF)n(C)c2-c2ccc(OC)cc2)cc1 [Example 31] | > 20 | % paw volume reduction from control (@ 20 mg/Kg, oral, rats): 36%
FC(F)(F)Sc1nc(-c2ccccc2)c(-c2ccccc2)n1COCc1ccccc1 [Example 1, 1-Benzyloxymethyl-4,5-diphenyl-2-trifluoromethylthioimidazole] | > 10 | % paw volume reduction from control (@ 10 mg/Kg, oral, rats): 34%
CCn1c(S(=O)(=O)C(F)(F)C(F)F)nc(-c2ccc(F)cc2)c1-c1ccc(F)cc1 [Example 23] | 4.8 | 
CCCCn1c(S(=O)(=O)C(F)(F)C(F)F)nc(-c2ccc(F)cc2)c1-c1ccc(F)cc1 [Example 25] | 5 | 
FC(F)(F)Sc1nc(-c2ccccc2)c(-c2ccccc2)n1C1CCCCO1 (stereo not drawn) [Example 5, 4,5-Diphenyl-1-(2-tetrahydropyranyl)-2-trifluoromethylthiomidazole] | 18 | 
O=S(=O)(c1ccccc1)n1c(SC(F)(F)F)nc(-c2ccc(F)cc2)c1-c1ccc(F)cc1 [Example 17, 1-Benzenesulfonyl-4,5-bis(4-fluorophenyl)-2-(trifluoromethylthio)imidazole] | 0.18 | 
CN(C)CCn1c(S(=O)(=O)C(F)(F)C(F)F)nc(-c2ccc(F)cc2)c1-c1ccc(F)cc1 [Example 27] | < 7 | % paw volume reduction from control (@ 7 mg/Kg, oral, rats): 76%
CC(=O)Oc1ccccc1C(=O)O [Aspirin, reference compound] |  | ED50 (po): 305 mg/kg
FC(F)C(F)(F)Sc1nc(-c2ccccc2)c(-c2ccccc2)n1COCc1ccccc1 [Example 2, 1-Benzyloxymethyl-4,5-diphenyl-2-(1,1,2,2-tetrafluoroethylthio)imidazole] | 3.7 | 
